Measured values as given in the supplement of paper PMC10307832.

What was measured:
Experiment in all cases: relative viability (nuclei count vs DMSO), 5 days (fraction); higher = more cells survive
Cediranib + Vorinostat = compound: COc1cc2c(Oc3ccc4[nH]c(C)cc4c3F)ncnc2cc1OCCCN1CCCC1 [Cediranib] + O=C(CCCCCCC(=O)Nc1ccccc1)NO [Vorinostat] (partner 1 µM)
Summary of the method: (§1)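 One day after seeding in 1536-well plates, lung cancer cell lines were dosed by pin tool. Dosing was either single-drug or a fixed anchor-drug dose plus five library-drug doses (not always all listed) in √10 steps. After 5 days, nuclei were stained in one fix-and-stain step and counted on 4× images, and relative viability is the nuclei count of treated wells over that of vehicle wells, given as the median of duplicate plates.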

Cediranib + Linsitinib = compound: COc1cc2c(Oc3ccc4[nH]c(C)cc4c3F)ncnc2cc1OCCCN1CCCC1 [Cediranib] + C[C@]1(O)C[C@@H](c2nc(-c3ccc4ccc(-c5ccccc5)nc4c3)c3c(N)nccn32)C1 [Linsitinib] (partner 1 µM)
Summary of the method: as §1

[1] = compound: O=C(C[C@H]1NCCC[C@@H]1O)Cn1cnc2cc(Br)c(Cl)cc2c1=O (racemic) [Halofuginone] + CCNC(=O)c1noc(-c2cc(C(C)C)c(O)cc2O)c1-c1ccc(CN2CCOCC2)cc1 [Luminespib] (partner 0.01 µM)
Summary of the method: as §1

Cediranib + Tozasertib = compound: COc1cc2c(Oc3ccc4[nH]c(C)cc4c3F)ncnc2cc1OCCCN1CCCC1 [Cediranib] + Cc1cc(Nc2cc(N3CCN(C)CC3)nc(Sc3ccc(NC(=O)C4CC4)cc3)n2)n[nH]1 [Tozasertib] (partner 0.1 µM)
Summary of the method: as §1

IA-LM
relative viability (Cediranib + Vorinostat; first compound 0.04 µM): 1.12 | relative viability (Cediranib + Vorinostat; first compound 0.4 µM): 0.895 | relative viability (Cediranib + Vorinostat; first compound 1.265 µM): 1.03 | relative viability (Cediranib + Vorinostat; first compound 4 µM): 1.06 | relative viability (Cediranib + Linsitinib; first compound 0.04 µM): 0.629 | relative viability (Cediranib + Linsitinib; first compound 0.1265 µM): 0.772 | relative viability (Cediranib + Linsitinib; first compound 0.4 µM): 0.586 | relative viability (Cediranib + Linsitinib; first compound 1.265 µM): 0.436 | relative viability (Cediranib + Linsitinib; first compound 4 µM): 0.634

SW 900
relative viability (Cediranib + Vorinostat; first compound 0.04 µM): 0.425 | relative viability (Cediranib + Vorinostat; first compound 0.1265 µM): 0.413 | relative viability (Cediranib + Vorinostat; first compound 0.4 µM): 0.438 | relative viability (Cediranib + Vorinostat; first compound 1.265 µM): 0.478 | relative viability (Cediranib + Vorinostat; first compound 4 µM): 0.495 | relative viability ([1]; first compound 0.001 µM): 0.205 | relative viability ([1]; first compound 0.003162 µM): 0.187 | relative viability ([1]; first compound 0.01 µM): 0.144 | relative viability ([1]; first compound 0.03162 µM): 0.181 | relative viability ([1]; first compound 0.1 µM): 0.154 | relative viability (Cediranib + Tozasertib; first compound 0.04 µM): 0.605 | relative viability (Cediranib + Tozasertib; first compound 0.1265 µM): 0.507 | relative viability (Cediranib + Tozasertib; first compound 0.4 µM): 0.584 | relative viability (Cediranib + Tozasertib; first compound 1.265 µM): 0.48 | relative viability (Cediranib + Tozasertib; first compound 4 µM): 0.571

HCC-366
relative viability (Cediranib + Vorinostat; first compound 0.04 µM): 0.346 | relative viability (Cediranib + Vorinostat; first compound 0.1265 µM): 0.401 | relative viability (Cediranib + Vorinostat; first compound 0.4 µM): 0.29 | relative viability (Cediranib + Vorinostat; first compound 1.265 µM): 0.287 | relative viability (Cediranib + Vorinostat; first compound 4 µM): 0.394 | relative viability (Cediranib + Linsitinib; first compound 0.04 µM): 0.65 | relative viability (Cediranib + Linsitinib; first compound 0.1265 µM): 0.634 | relative viability (Cediranib + Linsitinib; first compound 0.4 µM): 0.582 | relative viability (Cediranib + Linsitinib; first compound 1.265 µM): 0.542 | relative viability (Cediranib + Linsitinib; first compound 4 µM): 1.05 | relative viability (Cediranib + Tozasertib; first compound 0.04 µM): 0.114 | relative viability (Cediranib + Tozasertib; first compound 0.1265 µM): 0.0898 | relative viability (Cediranib + Tozasertib; first compound 0.4 µM): 0.125 | relative viability (Cediranib + Tozasertib; first compound 1.265 µM): 0.136 | relative viability (Cediranib + Tozasertib; first compound 4 µM): 0.147

HCC-78
relative viability (Cediranib + Vorinostat; first compound 0.04 µM): 0.45 | relative viability (Cediranib + Vorinostat; first compound 0.1265 µM): 0.367 | relative viability (Cediranib + Vorinostat; first compound 0.4 µM): 0.443 | relative viability (Cediranib + Vorinostat; first compound 1.265 µM): 0.499 | relative viability (Cediranib + Vorinostat; first compound 4 µM): 0.49 | relative viability (Cediranib + Linsitinib; first compound 0.04 µM): 0.664 | relative viability (Cediranib + Linsitinib; first compound 0.1265 µM): 0.625 | relative viability (Cediranib + Linsitinib; first compound 0.4 µM): 0.478 | relative viability (Cediranib + Linsitinib; first compound 1.265 µM): 0.487 | relative viability (Cediranib + Linsitinib; first compound 4 µM): 0.502 | relative viability (Cediranib + Tozasertib; first compound 0.04 µM): 0.448 | relative viability (Cediranib + Tozasertib; first compound 0.1265 µM): 0.474 | relative viability (Cediranib + Tozasertib; first compound 0.4 µM): 0.512 | relative viability (Cediranib + Tozasertib; first compound 1.265 µM): 0.54 | relative viability (Cediranib + Tozasertib; first compound 4 µM): 0.441

NCI-H1563
relative viability ([1]; first compound 0.001 µM): 0.487 | relative viability ([1]; first compound 0.003162 µM): 0.493 | relative viability ([1]; first compound 0.01 µM): 0.547 | relative viability ([1]; first compound 0.03162 µM): 0.534 | relative viability ([1]; first compound 0.1 µM): 0.467 | relative viability (Cediranib + Linsitinib; first compound 0.04 µM): 1.27 | relative viability (Cediranib + Linsitinib; first compound 0.1265 µM): 1.32 | relative viability (Cediranib + Linsitinib; first compound 0.4 µM): 1.22 | relative viability (Cediranib + Linsitinib; first compound 1.265 µM): 1.3 | relative viability (Cediranib + Linsitinib; first compound 4 µM): 1.22

NCI-H2342
relative viability (Cediranib + Vorinostat; first compound 0.04 µM): 0.712 | relative viability (Cediranib + Vorinostat; first compound 0.1265 µM): 0.791 | relative viability (Cediranib + Vorinostat; first compound 0.4 µM): 0.733 | relative viability (Cediranib + Vorinostat; first compound 1.265 µM): 0.613 | relative viability (Cediranib + Vorinostat; first compound 4 µM): 0.758 | relative viability ([1]; first compound 0.001 µM): 0.817 | relative viability ([1]; first compound 0.003162 µM): 0.719 | relative viability ([1]; first compound 0.01 µM): 0.699 | relative viability ([1]; first compound 0.03162 µM): 0.731 | relative viability ([1]; first compound 0.1 µM): 0.64 | relative viability (Cediranib + Tozasertib; first compound 0.04 µM): 0.54 | relative viability (Cediranib + Tozasertib; first compound 0.1265 µM): 0.575 | relative viability (Cediranib + Tozasertib; first compound 0.4 µM): 0.568 | relative viability (Cediranib + Tozasertib; first compound 1.265 µM): 0.536 | relative viability (Cediranib + Tozasertib; first compound 4 µM): 0.484
